Reference: US10543159B2, “Hair papilla cell activator” (Ezaki Glico Co., Ltd., priority 2014, dated 2020)

Key:
tenascin C = experiment: Quantitative PCR gene expression in follicle dermal papilla cells: tenascin C; type: cell-based, human; conditions: Example 3: 0.25% POs-Ca (R) or CaCl2 of equivalent calcium, DMEM, 37° C., 5 hours; Dunnett, n=6
Protocol: (§1) (1) 500 μl of a special medium in which 4×10^4 cells/ml of follicle dermal papilla cells were suspended was dispensed into a type I collagen-coated 24-well cell culture plate (Corning), and cultured at a cell density of 1.0×10^4 cells/cm^2 at 37° C. for 42 hours. (2) (a) Water (control), (b) a 2.5% (w/v) aqueous solution of POs-Ca (R), and (c) a 0.457% aqueous solution of CaCl2 (having an equivalent amount of calcium to that of (b)) were prepared. Each of the solutions (a) to (c) was mixed with DMEM high glucose (Sigma, USA) at a ratio of 1:9. […]
(§2) (6) 0.5 μl of each of cDNA solutions diluted 2-fold with water, 1 μl of a solution containing 4 μM of each of primers 1 and 2 for each of the genes shown in Table 2, 5 μl of SYBR Premix Ex Taq II (Takara), and 3.5 μl of water were added, and quantitative PCR was performed on each of the genes. […] Fluorescence intensity after each cycle was measured.
(§3) (7) Using PGK1 and GAPDH as reference genes, a comparative analysis of expression levels was performed with the analysis software (Bio-Rad CFX Manager 3.0) included in CFX96Touch. Relative expression levels were calculated under the default conditions of the software.
(§4) (8) The average value of calculated expression levels was determined for the six samples derived from the cells treated under the respective conditions, and defined as the expression level relative to the control.

[1] = tested on: human follicle dermal papilla cells; experiment: Follicle dermal papilla cell proliferation, WST-1 (Example 1); type: cell-based
Protocol: A strain (Lot. 3092504.12) sold by PromoCell (Germany) was used as human follicle dermal papilla cells. The cells were cultured in a CO2 incubator at 37° C., using a special medium for follicle dermal papilla cells (PromoCell), unless otherwise indicated. Cell subculturing was performed as follows: cells were seeded at 5000 to 10000 cells/cm^2 in an uncoated dish, and when the cells reached subconfluent, they were treated with trypsin-EDTA (0.03%) and detached, and then re-seeded. The trypsin-EDTA treatment allows complete detachment of the cells by incubation at 37° C. for nearly 10 minutes, with a high survival rate. The medium was replaced about once every 3 days.
(1) Human follicle dermal papilla cells were seeded in a 96-well collagen I-coated plate (BD Biocoat Collagen I 96-well clear plate) at 1.6×10^3 cells/well and cultured at 37° C. for 24 hours. Cells were not seeded in two wells on the plate for blanks.
(2) Solutions of the compositions shown in the table were prepared in a concentration series starting from a 10% (w/v) aqueous solution of POs-Ca (R), a 1.84% (w/v) aqueous solution of CaCl2.2H2O, or a 12.9% (w/v) aqueous solution of G1P-Ca.
(3) The above-described aqueous solutions and the special medium were mixed at a ratio of 1:9 to prepare media having five different concentrations for each calcium species with a final concentration of 1/10 shown in Table 1. The media in each of the columns of Table 1 have the same calcium concentration. […]
(7) Absorbance at 440 nm was measured for each well, using a fluorescence microplate reader (Varioskan Flash 2.4; Thermo Fisher Scientific, US).
(8) The value obtained by subtracting the absorbance of the blank wells from the absorbance of the well of the sample was defined as the value of the relative amount of cells of the sample in each well. The degree of cell proliferation relative to the control was calculated by dividing the value of the relative amount of cells in each well, by the average value of the relative amount of cells in the control medium.

versican = experiment: Quantitative PCR gene expression in follicle dermal papilla cells: versican; type: cell-based, human; conditions: Example 3: 0.25% POs-Ca (R) or CaCl2 of equivalent calcium, DMEM, 37° C., 5 hours; Dunnett, n=6
Protocol: as §1, §2, §3, §4

FGF-7 = experiment: Expression rate of FGF-7 among acidic saccharide salts, quantitative PCR (Example 6); type: cell-based, human; conditions: Example 6: solutions (b)-(h) of b288 mixed 1:9 with DMEM, GAPDH reference, mean of 4 PCR assays, dihydrate
Protocol: (1) 500 μl of a special medium in which 2×10^4 cells/ml of follicle dermal papilla cells were suspended was dispensed into a type I collagen-coated 24-well cell culture plate (Corning), and cultured at a cell density of 5×10^3 cells/cm^2 at 37° C. for 72 hours. […] Oji Cornstarch Co., Ltd.), (f) a 2.5% (w/v) aqueous solution of a phosphorylated oligosaccharide magnesium salt (POs-Mg; […] (3) Each of the solutions (a) to (c) was mixed with DMEM high glucose (Sigma, USA) at a ratio of 1:9. (4) Following the procedures (4) to (6) in Example 2, mRNA was extracted from the cells, cDNA was prepared, and then the expression levels of the VEGF, FGF-7, and GAPDH genes were quantified by quantitative PCR. (7) Using GAPDH as a reference gene, a comparative analysis of expression levels was performed with the analysis software (Bio-Rad CFX Manager 3.0) included in CFX96Touch. The expression levels were calculated under the default conditions of the software.

VEGF = experiment: Quantitative PCR gene expression in follicle dermal papilla cells: VEGF; type: cell-based, human; conditions: Example 3: 0.25% POs-Ca (R) or CaCl2 of equivalent calcium, DMEM, 37° C., 5 hours; Dunnett, n=6
ALPL = experiment: Quantitative PCR gene expression in follicle dermal papilla cells: ALPL; type: cell-based, human; conditions: Example 3: 0.25% POs-Ca (R) or CaCl2 of equivalent calcium, DMEM, 37° C., 5 hours; Dunnett, n=6
Protocol: as §1, §2, §3, §4

O.O.[Ca+2].[Cl-].[Cl-] [CaCl2, calcium chloride dihydrate]
expression of tenascin C gene compared to control (tenascin C): significant increases in the expression of genes were not observed | proliferation rate tendency at low concentrations ([1]; 0.0625% and 0.12% POs-Ca (R), 0.0115% and 0.023% calcium chloride): tended to decrease | increase of cell proliferation relative to the control ([1]; 0.25% POs-Ca (R) or calcium chloride with equivalent calcium, 3 days, WST-1): 5.6% | proliferation rate at high concentrations ([1]; 0.5% and 1.0% POs-Ca (R), 0.092% and 0.184% calcium chloride): tended to increase | expression of versican gene compared to control (versican): significantly decreased | FGF7, relative values of the expression levels based on the control as 1 (FGF-7): 1.02 | FGF7, relative values of the expression levels based on the control as 1 (FGF-7; listed as calcium chloride): either comparable to or below the control | expression of VEGF gene compared to control (VEGF): significant increases in the expression of genes were not observed | expression of ALPL gene compared to control (ALPL): significant increases in the expression of genes were not observed
